In patent US20260207602A1, “EGFR INHIBITORS” (Blueprint Medicines Corporation, priority 2022, published 2026):

Assays:
EGFR (d746-750) = molecular target: T1, EGFR (d746-750) (Homo sapiens, UniProt P00533, DEL746-750); assay: Biochemical EGFR inhibition assay (Caliper mobility shift), EGFR (d746-750); settings: biochemical Caliper mobility shift assay, EGFR Exon 19-del enzyme; read-out: Enz EGFR Exon 19-del IC50
T1 construct: purchased SignalChem E10-122JG
Protocol: Inhibitory effects of the compounds of the disclosure were measured in biochemical assays that measure the phosphorylation activity of EGFR enzyme phosphorylates 2.5 micromolar 5-FAM-[…]-CONH2 peptide substrate (ProfilerPro Kinase Peptide Substrate 22, PerkinElmer, Part #760366) in the presence of adenosine-5′-triphosphate (ATP) and varying concentrations of the test compound in 100 mM 2-[4-(2-hydroxyethyl)piperazin-1-yl]ethanesulfonic acid (HEPES), pH 7.5, 10 mM MgCl2, 0.015% Brij-35, 1 mM dithiothreitol (DTT), 1.0% dimehylsulfoxide (DMSO). Assays were performed at 1.0 mM ATP or at ATP Km of the EGFR enzymes. Reactions proceeded until between 10% to 20% total peptides were phosphorylated at room temperature (25° C.) and were terminated with 35 mM 2,2′,2″,2′″-(ethane-1,2-diyldinitrilo)tetraacetic acid (EDTA). Product was detected using the Caliper mobility shift detection method where the phosphorylated peptide (product) and substrate were electrophoretically separated and measured. Percent activity was plotted against log concentration of compound and points to generate an apparent IC50. The following enzyme forms of • EGFR were examples that were used in these assays: • EGFR WT (SignalChem, E10-112G) • EGFR L858R (SignalChem, E10-122BG) • EGFR (d746-750) (SignalChem, E10-122JG) • EGFR L858R C797S (SignalChem, E10-122ZG) • EGFR (d746-750) C797S (SignalChem, E10-122TG)

[1] = molecular target: intracellular phosphorylation of EGFR (Tyr1068) in PC-9 cells (Homo sapiens, UniProt P00533, DEL746-750); assay: PC-9 pEGFR AlphaLISA assay; assay type: cell-based; settings: 4 hours incubation, read-out: Phos EGFR PC9 IC50
Protocol: PC-9/A431 pEGFR AlphaLISA Assays
Inhibitory effects of compounds were evaluated in cellular assays that measure level of intracellular phosphorylation of EGFR in PC-9 (ECACC, #90071810, Milipore/Sigma) and A431 cell lines (ATCC, CRL-1555) using AlphaLISA sureFire ultra p-EGFR (Tyr1068) assay kit (PerkinElmer, ALSU-PEGFR-A50K). PC-9 cells were seeded at 3.125×10^5 cells/ml in 40 μL phenol-free DMEM supplemented with 10% FBS per well of a 384 well plate (Corning, 3764), while A431 were seeded at […] in 40 μL in phenol-free DMEM with 0.5% FBS. Cells were allowed to adhere overnight at 37° C./5% CO2. On the next day, compounds were transferred at 4-fold, 10-point serial dilution from compound source plate to cell plates using liquid handler Echo550 and were incubated at 37° C./5% CO2 for 4 hours. A431 cells were stimulated prior harvesting for 10 min with EGF at final concentration of 30 ng/ml in the incubator. Medium was removed from the plates and cells were lysed with 10 μL of 1× AlphaLISA lysis buffer (supplemented with 1× protease/phosphatase inhibitor cocktail) followed by shaking at 600 rpm for 30 minutes at room temperature. Lysates were transferred to Optiplate (Apricot designs) and 5 ul of 1× acceptor bead mix (prepared just before use) was added to each well followed by incubation at room temperature for 1.5-2 h in dark. Then 5 μL of freshly-made donor bead mix is added to each well under subdued lighting or green filters, was mixed well on the shaker and the plate was sealed and left for an overnight incubation at room temperature in dark. On the next day, the plate was read the Envision using standard AlphaLisa settings. Percent of pEGFR inhibition was plotted against log concentration of compounds to generate IC50 values.

EGFR L858R = molecular target: T2, EGFR L858R (Homo sapiens, UniProt P00533, L858R); assay: Biochemical EGFR inhibition assay (Caliper mobility shift), EGFR L858R; settings: biochemical Caliper mobility shift assay, EGFR L858R enzyme; read-out: Enz EGFR L858R IC50
T2 construct: purchased SignalChem E10-122BG
Outline: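 Recombinant mutant enzyme, 2.5 µM fluorescent peptide, ATP at 1.0 mM or Km, 1.0% DMSO, 25 °C. Stopped with EDTA once 10–20% of peptide was phosphorylated; apparent IC50 derived from electrophoretic product/substrate separation.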

T1 sequence (P00533 with tags, fused parts or gaps DEL746-750 limits assumed): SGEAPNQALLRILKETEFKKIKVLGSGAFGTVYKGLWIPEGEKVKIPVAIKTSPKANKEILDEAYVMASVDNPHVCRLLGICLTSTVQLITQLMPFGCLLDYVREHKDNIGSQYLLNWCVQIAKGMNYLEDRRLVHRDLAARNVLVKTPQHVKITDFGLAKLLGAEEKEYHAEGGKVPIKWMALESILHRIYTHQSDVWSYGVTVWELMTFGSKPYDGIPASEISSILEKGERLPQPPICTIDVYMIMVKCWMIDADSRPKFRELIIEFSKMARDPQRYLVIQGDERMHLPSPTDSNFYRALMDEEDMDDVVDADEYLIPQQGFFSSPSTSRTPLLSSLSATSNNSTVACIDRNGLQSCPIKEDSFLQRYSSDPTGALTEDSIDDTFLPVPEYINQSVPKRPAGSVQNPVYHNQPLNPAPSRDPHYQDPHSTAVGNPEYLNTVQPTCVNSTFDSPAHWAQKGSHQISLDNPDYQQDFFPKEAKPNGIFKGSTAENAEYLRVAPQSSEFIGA
T2 sequence (P00533 25-1210 L858R): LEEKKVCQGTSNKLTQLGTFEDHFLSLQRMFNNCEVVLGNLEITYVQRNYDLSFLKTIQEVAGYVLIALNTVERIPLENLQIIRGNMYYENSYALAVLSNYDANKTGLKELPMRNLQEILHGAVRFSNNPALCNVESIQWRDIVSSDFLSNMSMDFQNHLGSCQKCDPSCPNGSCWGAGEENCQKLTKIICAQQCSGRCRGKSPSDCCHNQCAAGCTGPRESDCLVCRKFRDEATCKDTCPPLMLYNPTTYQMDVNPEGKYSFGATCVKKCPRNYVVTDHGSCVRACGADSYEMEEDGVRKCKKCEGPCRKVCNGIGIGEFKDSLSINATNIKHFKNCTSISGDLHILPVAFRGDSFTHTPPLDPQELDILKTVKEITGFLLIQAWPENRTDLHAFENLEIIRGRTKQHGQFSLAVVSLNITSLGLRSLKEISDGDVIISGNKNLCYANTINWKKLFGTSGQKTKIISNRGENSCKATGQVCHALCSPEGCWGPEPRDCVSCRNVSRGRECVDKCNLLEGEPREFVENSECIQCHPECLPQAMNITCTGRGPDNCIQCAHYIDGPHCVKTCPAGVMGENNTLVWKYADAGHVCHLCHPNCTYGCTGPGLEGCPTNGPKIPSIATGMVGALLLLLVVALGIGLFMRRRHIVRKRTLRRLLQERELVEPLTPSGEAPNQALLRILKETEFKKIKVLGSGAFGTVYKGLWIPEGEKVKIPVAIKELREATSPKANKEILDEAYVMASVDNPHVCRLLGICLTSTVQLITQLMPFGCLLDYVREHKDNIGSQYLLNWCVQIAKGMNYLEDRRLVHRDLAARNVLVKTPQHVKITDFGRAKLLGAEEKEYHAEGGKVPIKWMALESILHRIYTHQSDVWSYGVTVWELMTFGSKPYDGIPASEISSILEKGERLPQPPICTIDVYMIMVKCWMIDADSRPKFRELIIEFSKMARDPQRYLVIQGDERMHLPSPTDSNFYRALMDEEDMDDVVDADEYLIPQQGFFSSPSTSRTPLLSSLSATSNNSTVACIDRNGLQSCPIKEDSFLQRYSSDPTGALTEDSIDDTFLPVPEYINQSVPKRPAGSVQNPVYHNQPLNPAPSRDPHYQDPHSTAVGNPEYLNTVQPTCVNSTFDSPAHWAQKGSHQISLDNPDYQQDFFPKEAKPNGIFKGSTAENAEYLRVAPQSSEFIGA
intracellular phosphorylation of EGFR (Tyr1068) in PC-9 cells, sequence (P00533 with tags, fused parts or gaps DEL746-750): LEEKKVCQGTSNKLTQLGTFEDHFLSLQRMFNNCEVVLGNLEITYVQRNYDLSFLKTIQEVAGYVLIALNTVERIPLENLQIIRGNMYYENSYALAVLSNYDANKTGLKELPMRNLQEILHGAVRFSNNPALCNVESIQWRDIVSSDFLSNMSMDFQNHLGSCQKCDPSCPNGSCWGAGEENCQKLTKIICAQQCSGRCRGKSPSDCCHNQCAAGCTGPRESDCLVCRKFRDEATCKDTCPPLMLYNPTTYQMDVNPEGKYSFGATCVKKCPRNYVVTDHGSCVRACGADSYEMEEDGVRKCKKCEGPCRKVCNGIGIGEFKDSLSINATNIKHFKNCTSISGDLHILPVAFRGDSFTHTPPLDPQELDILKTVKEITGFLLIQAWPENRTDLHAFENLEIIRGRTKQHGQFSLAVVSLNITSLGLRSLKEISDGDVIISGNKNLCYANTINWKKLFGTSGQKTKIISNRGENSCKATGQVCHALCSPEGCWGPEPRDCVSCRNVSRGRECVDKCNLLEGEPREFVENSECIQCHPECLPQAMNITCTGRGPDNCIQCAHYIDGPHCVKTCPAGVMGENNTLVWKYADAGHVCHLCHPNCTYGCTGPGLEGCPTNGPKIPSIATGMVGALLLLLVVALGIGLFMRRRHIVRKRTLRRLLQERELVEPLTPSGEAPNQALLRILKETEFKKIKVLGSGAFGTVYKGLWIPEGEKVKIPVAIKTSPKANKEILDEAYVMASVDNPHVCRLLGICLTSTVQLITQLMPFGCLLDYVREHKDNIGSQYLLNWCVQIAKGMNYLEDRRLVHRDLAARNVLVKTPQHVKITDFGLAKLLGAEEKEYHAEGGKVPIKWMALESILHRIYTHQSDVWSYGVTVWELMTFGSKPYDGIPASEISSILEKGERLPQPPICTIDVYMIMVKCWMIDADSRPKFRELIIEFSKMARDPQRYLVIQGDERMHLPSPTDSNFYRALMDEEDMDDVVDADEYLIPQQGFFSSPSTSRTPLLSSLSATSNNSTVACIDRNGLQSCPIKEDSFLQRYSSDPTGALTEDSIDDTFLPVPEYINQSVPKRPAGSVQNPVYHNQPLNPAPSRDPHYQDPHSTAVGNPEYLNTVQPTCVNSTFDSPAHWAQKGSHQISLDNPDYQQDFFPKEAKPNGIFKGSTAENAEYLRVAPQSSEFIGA

C[C@@H](Oc1cc(N2CCN(C)CC2)cc2ncnc(Nc3ccc4ncsc4c3F)c12)[C@@H]1CCCO1 [Example 114, 7-fluoro-N-(7-(4-methylpiperazin-1-yl)-5-((R)-1-((S)-tetrahydrofuran-2-yl)ethoxy)quinazolin-4-yl)benzo[d]thiazol-6-amine]
IC50 (EGFR (d746-750)): ≤ 0.01 µM
IC50 [1]: 0.0101 to 0.05 µM
IC50 (EGFR L858R): ≤ 0.01 µM

C[C@@H](Oc1cc(-c2cnn(C)c2)cc2ncnc(Nc3ccc4ncsc4c3F)c12)C1CN(C)C1 (single isomer, unassigned) [Example 387]
IC50 (EGFR (d746-750)): ≤ 0.01 µM
IC50 [1]: ≤ 0.01 µM
IC50 (EGFR L858R): ≤ 0.01 µM

Cn1cc(-c2cc(OC3CCCOC3)c3c(Nc4ccc5ncsc5c4)ncnc3c2)cn1 (single isomer, unassigned) [Example 7]
IC50 (EGFR (d746-750)): ≤ 0.01 µM
IC50 [1]: 0.0101 to 0.05 µM
IC50 (EGFR L858R): ≤ 0.01 µM

Cn1cc(-c2cc(OCC(=O)N3CCOCC3)c3c(Nc4ccc5ncsc5c4F)ncnc3c2)cn1 [Example 276, 2-((4-((7-fluorobenzo[d]thiazol-6-yl)amino)-7-(1-methyl-1H-pyrazol-4-yl)quinazolin-5-yl)oxy)-1-morpholinoethan-1-one]
IC50 (EGFR (d746-750)): ≤ 0.01 µM
IC50 [1]: ≤ 0.01 µM
IC50 (EGFR L858R): ≤ 0.01 µM

CC(Oc1cc(N2CCN(C)C3CC32)cc2ncnc(Nc3ccc4ncsc4c3)c12)C1COC1 [Example 300, N-(7-((1R,6S)-5-methyl-2,5-diazabicyclo[4.1.0]heptan-2-yl)-5-((R)-1-(oxetan-3-yl)ethoxy)quinazolin-4-yl)benzo[d]thiazol-6-amine, OR N-(7-((1S,6R)-5-methyl-2,5-diazabicyclo[4.1.0]heptan-2-yl)-5-((R)-1-(oxetan-3-yl)ethoxy)quinazolin-4-yl)benzo[d]thiazol-6-amine]
IC50 (EGFR (d746-750)): ≤ 0.01 µM
IC50 [1]: ≤ 0.01 µM
IC50 (EGFR L858R): 0.0101 to 0.05 µM

Cn1cc(-c2cc(OCCO)c3c(Nc4ccc5ncsc5c4)ncnc3c2)cn1 [Example 30, 2-((4-(benzo[d]thiazol-6-ylamino)-7-(1-methyl-1H-pyrazol-4-yl)quinazolin-5-yl)oxy)ethan-1-ol]
IC50 (EGFR (d746-750)): ≤ 0.01 µM
IC50 [1]: 0.0101 to 0.05 µM
IC50 (EGFR L858R): ≤ 0.01 µM

CN1CCC(Oc2cc(-c3cnn(C(F)F)c3)cc3ncnc(Nc4ccc5ncsc5c4)c23)CC1 [Example 189, N-(7-(1-(difluoromethyl)-1H-pyrazol-4-yl)-5-((1-methylpiperidin-4-yl)oxy)quinazolin-4-yl)benzo[d]thiazol-6-amine]
IC50 (EGFR (d746-750)): ≤ 0.01 µM
IC50 [1]: 0.0101 to 0.05 µM
IC50 (EGFR L858R): 0.0101 to 0.05 µM

Cn1cc(-c2cc(O[C@@H]3CCOC3)c3c(Nc4ccc5ncsc5c4)ncnc3c2)cn1 [Example 37, (R)-N-(7-(1-methyl-1H-pyrazol-4-yl)-5-((tetrahydrofuran-3-yl)oxy)quinazolin-4-yl)benzo[d]thiazol-6-amine]
IC50 (EGFR (d746-750)): ≤ 0.01 µM
IC50 [1]: 0.0101 to 0.05 µM
IC50 (EGFR L858R): ≤ 0.01 µM

Cn1cc(-c2cc(O[C@@H]3CC[C@H]3O)c3c(Nc4ccc5ncsc5c4)ncnc3c2)cn1 (single isomer, unassigned) [Example A53]
IC50 (EGFR (d746-750)): ≤ 0.01 µM
IC50 [1]: ≤ 0.01 µM
IC50 (EGFR L858R): ≤ 0.01 µM

COc1nn(C)cc1-c1cc(O[C@H]2CCCN(C)C2)c2c(Nc3ccc4ncsc4c3)ncnc2c1 [Example 12, (S)-N-(7-(3-methoxy-1-methyl-1H-pyrazol-4-yl)-5-((1-methylpiperidin-3-yl)oxy)quinazolin-4-yl)benzo[d]thiazol-6-amine]
IC50 (EGFR (d746-750)): ≤ 0.01 µM
IC50 [1]: ≤ 0.01 µM
IC50 (EGFR L858R): ≤ 0.01 µM

C[C@H](Oc1cc(-c2cnn(C)c2)cc2ncnc(Nc3ccc4ncsc4c3F)c12)C1COC1 (single isomer, unassigned) [Example 71, (S)-7-fluoro-N-(7-(1-methyl-1H-pyrazol-4-yl)-5-(1-(oxetan-3-yl)ethoxy)quinazolin-4-yl)benzo[d]thiazol-6-amine or (R)-7-fluoro-N-(7-(1-methyl-1H-pyrazol-4-yl)-5-(1-(oxetan-3-yl)ethoxy)quinazolin-4-yl)benzo[d]thiazol-6-amine]
IC50 (EGFR (d746-750)): ≤ 0.01 µM
IC50 [1]: ≤ 0.01 µM
IC50 (EGFR L858R): ≤ 0.01 µM

CC[C@@H](Oc1cc(-c2cnn(C)c2)cc2ncnc(Nc3ccc4ncsc4c3F)c12)C1COC1 (single isomer, unassigned) [Example 92]
IC50 (EGFR (d746-750)): ≤ 0.01 µM
IC50 [1]: ≤ 0.01 µM
IC50 (EGFR L858R): ≤ 0.01 µM

Cn1cc(-c2cc(OC(C)(C)C(=O)N3CCOCC3)c3c(Nc4ccc5ncsc5c4)ncnc3c2)cn1 [Example 286, 2-((4-(benzo[d]thiazol-6-ylamino)-7-(1-methyl-1H-pyrazol-4-yl)quinazolin-5-yl)oxy)-2-methyl-1-morpholinopropan-1-one]
IC50 (EGFR (d746-750)): ≤ 0.01 µM
IC50 [1]: 0.0101 to 0.05 µM
IC50 (EGFR L858R): 0.0101 to 0.05 µM

COc1cc(O[C@H](C)CN(C)C)c2c(Nc3ccc4ncsc4c3F)ncnc2c1 [Example 146, (R)-N-(5-((1-(dimethylamino)propan-2-yl)oxy)-7-methoxyquinazolin-4-yl)-7-fluorobenzo[d]thiazol-6-amine]
IC50 (EGFR (d746-750)): ≤ 0.01 µM
IC50 [1]: 0.0101 to 0.05 µM
IC50 (EGFR L858R): 0.0101 to 0.05 µM

CCN1CCN(C(=O)Nc2cc3c(Nc4ccc5ncsc5c4)ncnc3cc2-c2ccn(C)n2)CC1 [Example 253, N-(4-(benzo[d]thiazol-6-ylamino)-7-(1-methyl-1H-pyrazol-3-yl)quinazolin-6-yl)-4-ethylpiperazine-1-carboxamide]
IC50 (EGFR (d746-750)): ≤ 0.01 µM
IC50 [1]: ≤ 0.01 µM
IC50 (EGFR L858R): ≤ 0.01 µM

CN1CCC(Oc2cc(-c3cn(C)n(C(F)F)c3=O)cc3ncnc(Nc4ccc5ncsc5c4)c23)CC1 [Example A17, 4-(4-(benzo[d]thiazol-6-ylamino)-5-((1-methylpiperidin-4-yl)oxy)quinazolin-7-yl)-2-(difluoromethyl)-1-methyl-1,2-dihydro-3H-pyrazol-3-one]
IC50 (EGFR (d746-750)): ≤ 0.01 µM
IC50 [1]: 0.0101 to 0.05 µM
IC50 (EGFR L858R): 0.0101 to 0.05 µM

CN1CCC[C@@H](Oc2cc(-c3cnn(C)c3)cc3ncnc(Nc4ccc5ncsc5c4)c23)C1 (single isomer, unassigned) [Example 47]
IC50 (EGFR (d746-750)): ≤ 0.01 µM
IC50 [1]: 0.0101 to 0.05 µM
IC50 (EGFR L858R): ≤ 0.01 µM

CCN1CC[C@H](Oc2cc(-c3cnn(C)c3)cc3ncnc(Nc4ccc5ncsc5c4)c23)C1=O (single isomer, unassigned) [Example 59, (S)-3-((4-(benzo[d]thiazol-6-ylamino)-7-(1-methyl-1H-pyrazol-4-yl)quinazolin-5-yl)oxy)-1-ethylpyrrolidin-2-one or (R)-3-((4-(benzo[d]thiazol-6-ylamino)-7-(1-methyl-1H-pyrazol-4-yl)quinazolin-5-yl)oxy)-1-ethylpyrrolidin-2-one]
IC50 (EGFR (d746-750)): ≤ 0.01 µM
IC50 [1]: ≤ 0.01 µM
IC50 (EGFR L858R): ≤ 0.01 µM

Cn1cc(-c2cc(OC[C@]34COC[C@H]3C4)c3c(Nc4ccc5ncsc5c4)ncnc3c2)cn1 (single isomer, unassigned) [Example 147]
IC50 (EGFR (d746-750)): ≤ 0.01 µM
IC50 [1]: 0.0101 to 0.05 µM
IC50 (EGFR L858R): 0.0101 to 0.05 µM

Cn1cc(-c2cc(OC[C@H]3CCCO3)c3c(Nc4ccc5ncsc5c4)ncnc3c2)cn1 [Example 31, (R)-N-(7-(1-methyl-1H-pyrazol-4-yl)-5-((tetrahydrofuran-2-yl)methoxy)quinazolin-4-yl)benzo[d]thiazol-6-amine]
IC50 (EGFR (d746-750)): ≤ 0.01 µM
IC50 [1]: 0.0101 to 0.05 µM
IC50 (EGFR L858R): ≤ 0.01 µM

COc1nn(C)cc1-c1cc(O[C@H]2CCNC[C@@H]2F)c2c(Nc3ccc4ncsc4c3)ncnc2c1 (single isomer, unassigned) [Example 360]
IC50 (EGFR (d746-750)): ≤ 0.01 µM
IC50 [1]: ≤ 0.01 µM
IC50 (EGFR L858R): ≤ 0.01 µM
